From PubChem BioAssay (NCI)
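96-well plates; 48 h exposure; 5 concentrations. Endpoints by linear interpolation between flanking doses. Not reached: highest tested concentration assigned. Here, GI50 denotes the concentration required for 50% inhibition of growth. At the TGI there is no net growth.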

Legend:
Experiment in all cases: NCI tumour cell line growth inhibition, 48 h
NCI/ADR-RES ovarian = test system: NCI/ADR-RES ovarian
DU-145 prostate = test system: DU-145 prostate
HS 578T breast = test system: HS 578T breast
SK-OV-3 ovarian = test system: SK-OV-3 ovarian
UACC-257 melanoma = test system: UACC-257 melanoma
NCI-H226 lung = test system: NCI-H226 lung
SK-MEL-2 melanoma = test system: SK-MEL-2 melanoma
KM12 colon = test system: KM12 colon

Compound	GI50 (NCI/ADR-RES ovarian)	TGI (NCI/ADR-RES ovarian)	GI50 (DU-145 prostate)	TGI (DU-145 prostate)	GI50 (HS 578T breast)	TGI (HS 578T breast)	GI50 (SK-OV-3 ovarian)	TGI (SK-OV-3 ovarian)	GI50 (UACC-257 melanoma)	TGI (UACC-257 melanoma)	GI50 (NCI-H226 lung)	TGI (NCI-H226 lung)	TGI (SK-MEL-2 melanoma)	TGI (KM12 colon)	GI50 (SK-MEL-2 melanoma)	GI50 (KM12 colon)
CCCCCCCCCCCCCCCC[N+](C)(CCO)Cc1cnc[nH]1 (stereo unspecified)	14.7 µM	42.4 µM	1.23 µM	4.2 µM	2.85 µM	35.9 µM	1.5 µM	5.22 µM	4.08 µM	72.7 µM	1.51 µM	7.72 µM	–	–	–	–
COc1ccc(NC(=O)CC/C(CC(=O)C(C)(C)C)=N\NC(=O)C(N)=O)cc1	–	–	–	–	–	–	–	> 100 µM	–	> 100 µM	–	> 100 µM	> 100 µM	> 100 µM	–	–
O=Cc1ccc(-c2ccc(-c3nc4ccccc4o3)cc2)s1	27.2 µM	79.4 µM	26.3 µM	> 100 µM	–	–	30.8 µM	99.5 µM	49.3 µM	> 100 µM	31.5 µM	90.2 µM	> 100 µM	> 100 µM	63.4 µM	30.3 µM
Cc1[nH]c2ccccc2c1-c1cc(-c2cc(-c3c(C)[nH]c4ccccc34)nc(N)n2)nc(N)n1	–	> 100 µM	–	–	–	> 100 µM	–	> 100 µM	–	> 100 µM	–	> 100 µM	> 100 µM	> 100 µM	–	–
Nc1ccccc1NC(=O)c1ccc(CCCC(=O)Nc2ccc(C3CC3N)cc2)cc1 (stereo unspecified)	45.7 µM	> 100 µM	2.66 µM	18.5 µM	2.82 µM	> 100 µM	2.15 µM	42.4 µM	–	–	1.85 µM	69.4 µM	7.26 µM	> 100 µM	1.55 µM	3.63 µM
Cc1cc2cn3c4ccc(O)cc4[nH]c(=O)c3c2cc1C	–	–	0.0285 µM	0.315 µM	–	–	0.0293 µM	0.298 µM	0.0416 µM	1.31 µM	0.0399 µM	0.859 µM	1.97 µM	0.553 µM	0.0411 µM	0.0374 µM
COc1ccc(Cc2cc3c(cc2OCC(=O)O)OCO3)cc1	–	–	–	–	–	–	–	> 100 µM	–	> 100 µM	–	–	> 100 µM	> 100 µM	–	–
S=C(Nc1ccc(Cl)cc1)Nc1ccc(-c2nc3ccccc3o2)cc1	21.8 µM	58.7 µM	17 µM	38.6 µM	21.2 µM	79.2 µM	32.3 µM	> 100 µM	21.4 µM	45.4 µM	–	–	51.2 µM	42.9 µM	24.2 µM	15.8 µM
O=c1c(O)cccc2cc(O)c(O)c(O)c12	34.5 µM	> 100 µM	18.8 µM	> 100 µM	5.42 µM	> 100 µM	> 100 µM	> 100 µM	5.84 µM	> 100 µM	> 100 µM	> 100 µM	–	> 100 µM	–	26.9 µM
CN(C)c1ncc(-c2ccc(C(F)(F)F)cc2)c(NC2CCCCCC2)n1	22.2 µM	80.6 µM	27.1 µM	> 100 µM	23.1 µM	> 100 µM	29 µM	95.4 µM	16.8 µM	54 µM	12.6 µM	28.8 µM	–	63.3 µM	–	20.5 µM
CC(=O)O[C@@H]1[C@@H](O)C2=C3[C@]4(C)[C@@H]1C(C)(C)C(=O)C[C@@H]4[C@]3(O)[C@H](OC(C)=O)[C@@]1(C[C@@H]1C)C2=O	–	62.5 µM	–	33.8 µM	–	> 100 µM	–	52.6 µM	–	37.2 µM	–	–	68.5 µM	30.8 µM	–	–
O=C(O)c1cc2ccccc2oc1=O	–	> 100 µM	–	> 100 µM	–	> 100 µM	–	–	–	> 100 µM	–	> 100 µM	> 100 µM	> 100 µM	–	–
Nc1nc2cc3ccc(C4CC(O)C(CO)O4)cc3cc2c(=O)[nH]1 (stereo unspecified)	> 100 µM	> 100 µM	> 100 µM	> 100 µM	> 100 µM	> 100 µM	> 100 µM	> 100 µM	> 100 µM	> 100 µM	> 100 µM	> 100 µM	> 100 µM	–	0.0927 µM	–
CC#C/C(=N\OC[C@H]1COCCN1)c1ccc2ncnc(Nc3ccc(OCc4cccc(F)c4)c(Cl)c3)c2c1	1.27 µM	2.87 µM	1.1 µM	2.36 µM	1.89 µM	4.46 µM	0.0176 µM	1.35 µM	1.85 µM	3.45 µM	12 µM	40.3 µM	3.61 µM	–	1.97 µM	–
O=C(O)CCC/C=C\C[C@H]1C=CC(=O)/C1=C/C[C@@H](O)CCc1cccc(C(F)(F)F)c1	3.15 µM	29.3 µM	2.43 µM	10.3 µM	13.7 µM	71.2 µM	5.66 µM	18.3 µM	2.36 µM	7.38 µM	–	–	7.98 µM	4.62 µM	2.65 µM	1.89 µM
